Data as given in PubChem BioAssay AID248 (DTP/NCI, 2004).
Several values for one entry are separate records, joined by “and”; a condition that tells them apart may be missing. Identical values can stand only once. Inconclusive results and toxic doses are left out. Cut-off read from the data, not from the text of the source: active = T/C of 150% or more; inactive = T/C below 125%.

System: L1210 leukemia ip in BDF1 mice, survival T/C
Assay: NCI In Vivo Anticancer Drug Screen. Data for tumor model L1210 Leukemia (intraperitoneal) in B6D2F1 (BDF1) mice
Settings: endpoint: mean survival time, higher = longer survival
Summary of the method: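 In this screen, tumor-bearing mice given compound are compared to those given vehicle, and their survival values are reported as a treated-to-control quotient.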

[1] = dose: 50.0 mg/kg/injection, schedule: Q01DX001 (ip), vehicle: saline with Tween-80
[2] = dose: 100.0 mg/kg/injection, schedule: Q04DX002 (ip), vehicle: saline with Tween-80
[3] = dose: 200.0 mg/kg/injection, schedule: Q01DX009 (ip), vehicle: saline with Tween-80
[4] = dose: 200.0 mg/kg/injection, schedule: Q04DX002 (ip), vehicle: saline with Tween-80
[5] = dose: 400.0 mg/kg/injection, schedule: Q04DX002 (ip), vehicle: saline with Tween-80
[6] = dose: 100.0 mg/kg/injection, schedule: Q01DX009 (ip), vehicle: saline
[7] = dose: 200.0 mg/kg/injection, schedule: Q01DX009 (ip), vehicle: saline
[8] = dose: 400.0 mg/kg/injection, schedule: Q01DX009 (ip), vehicle: saline
[9] = dose: 100.0 mg/kg/injection, schedule: Q04DX003 (ip), vehicle: other
[10] = dose: 400.0 mg/kg/injection, schedule: Q04DX003 (ip), vehicle: other
[11] = dose: 100.0 mg/kg/injection, schedule: Q01DX001 (ip), vehicle: carboxymethylcellulose (CMC)
[12] = dose: 200.0 mg/kg/injection, schedule: Q01DX001 (ip), vehicle: carboxymethylcellulose (CMC)
[13] = dose: 100.0 mg/kg/injection, schedule: Q01DX001 (ip), vehicle: saline
[14] = dose: 200.0 mg/kg/injection, schedule: Q01DX001 (ip), vehicle: saline
[15] = dose: 400.0 mg/kg/injection, schedule: Q01DX001 (ip), vehicle: saline
[16] = dose: 100.0 mg/kg/injection, schedule: Q04DX002 (ip), vehicle: Klucel (hydroxypropylcellulose) (HPC)
[17] = dose: 200.0 mg/kg/injection, schedule: Q04DX002 (ip), vehicle: Klucel (hydroxypropylcellulose) (HPC)

Measured: T/C

O=C(Nc1ccc(S(=O)(=O)F)cc1)Oc1ccc([N+](=O)[O-])cc1
inactive: dose: 25.0 mg/kg/injection, schedule: Q01DX009 (ip), vehicle: saline with Tween-80 92 % of control and 93 % of control | [1] 103 % of control | dose: 50.0 mg/kg/injection, schedule: Q01DX009 (ip), vehicle: saline with Tween-80 92 % of control and 89 % of control | dose: 100.0 mg/kg/injection, schedule: Q01DX001 (ip), vehicle: saline with Tween-80 105 % of control | [2] 95 % of control | dose: 100.0 mg/kg/injection, schedule: Q04DX003 (ip), vehicle: saline with Tween-80 93 % of control | dose: 200.0 mg/kg/injection, schedule: Q01DX001 (ip), vehicle: saline with Tween-80 97 % of control | [3] 98 % of control | [4] 96 % of control | dose: 200.0 mg/kg/injection, schedule: Q04DX003 (ip), vehicle: saline with Tween-80 98 % of control | dose: 400.0 mg/kg/injection, schedule: Q01DX001 (ip), vehicle: saline with Tween-80 105 % of control | [5] 88 % of control | dose: 400.0 mg/kg/injection, schedule: Q04DX003 (ip), vehicle: saline with Tween-80 103 % of control

O=C(NCCCl)NC1CC1c1ccccc1 (configuration not stated)
inactive: dose: 75.0 mg/kg/injection, schedule: Q01DX001 (ip), vehicle: other 97 % of control | dose: 150.0 mg/kg/injection, schedule: Q01DX001 (ip), vehicle: other 103 % of control

NC(Cc1cc(I)c(O)c(I)c1)C(=O)O (configuration not stated)
inactive: dose: 12.5 mg/kg/injection, schedule: Q01DX009 (ip), vehicle: carboxymethylcellulose (CMC) 101 % of control | dose: 25.0 mg/kg/injection, schedule: Q01DX009 (ip), vehicle: carboxymethylcellulose (CMC) 99 % of control | dose: 25.0 mg/kg/injection, schedule: Q01DX009 (ip), vehicle: saline 92 % of control | dose: 25.0 mg/kg/injection, schedule: Q04DX003 (ip), vehicle: carboxymethylcellulose (CMC) 101 % of control | dose: 50.0 mg/kg/injection, schedule: Q01DX009 (ip), vehicle: carboxymethylcellulose (CMC) 90 % of control | dose: 50.0 mg/kg/injection, schedule: Q01DX009 (ip), vehicle: saline 112 % of control | dose: 50.0 mg/kg/injection, schedule: Q04DX003 (ip), vehicle: carboxymethylcellulose (CMC) 100 % of control | dose: 100.0 mg/kg/injection, schedule: Q01DX009 (ip), vehicle: carboxymethylcellulose (CMC) 99 % of control | [6] 108 % of control | dose: 100.0 mg/kg/injection, schedule: Q04DX003 (ip), vehicle: carboxymethylcellulose (CMC) 96 % of control | dose: 200.0 mg/kg/injection, schedule: Q01DX009 (ip), vehicle: carboxymethylcellulose (CMC) 91 % of control | [7] 108 % of control | dose: 200.0 mg/kg/injection, schedule: Q04DX003 (ip), vehicle: carboxymethylcellulose (CMC) 92 % of control | [8] 95 % of control | dose: 400.0 mg/kg/injection, schedule: Q04DX003 (ip), vehicle: carboxymethylcellulose (CMC) 100 % of control

CC(=O)CC(C)=Nc1ccc([N+](=O)[O-])cc1.CC(=O)CC(C)=Nc1ccc([N+](=O)[O-])cc1.[Cu]
inactive: dose: 12.5 mg/kg/injection, schedule: Q01DX001 (ip), vehicle: saline with Tween-80 93 % of control | dose: 25.0 mg/kg/injection, schedule: Q01DX001 (ip), vehicle: saline with Tween-80 88 % of control | [1] 91 % of control

CC(C)=COC(=N)C(N)=O
inactive: [9] 100 % of control | dose: 200.0 mg/kg/injection, schedule: Q04DX003 (ip), vehicle: other 97 % of control | [10] 115 % of control

CC(CNCCN)C[Si](C)(C)C (configuration not stated)
inactive: dose: 4.0 mg/kg/injection, schedule: Q01DX015 (ip), vehicle: saline 101 % of control | dose: 6.25 mg/kg/injection, schedule: Q04DX003 (ip), vehicle: saline sonified 101 % of control | dose: 8.0 mg/kg/injection, schedule: Q01DX015 (ip), vehicle: saline 96 % of control | dose: 12.5 mg/kg/injection, schedule: Q04DX003 (ip), vehicle: saline sonified 97 % of control | dose: 16.0 mg/kg/injection, schedule: Q01DX015 (ip), vehicle: saline 102 % of control | dose: 25.0 mg/kg/injection, schedule: Q04DX003 (ip), vehicle: saline sonified 97 % of control | dose: 32.0 mg/kg/injection, schedule: Q01DX015 (ip), vehicle: saline 96 % of control

O=[N+]([O-])c1ccc(N/N=C\c2ccc3ccccc3n2)cc1
inactive: [6] 97 % of control | [7] 104 % of control | [8] 91 % of control

Cc1cc(C)c(NC(=O)CC#N)c(C)c1
inactive: [2] 90 % of control | [4] 90 % of control | [5] 90 % of control

Oc1ccc2ccccc2c1/C=N/N=c1\[nH][nH]/c(=N\N=C\c2c(O)ccc3ccccc23)c2ccccc12
inactive: dose: 50.0 mg/kg/injection, schedule: Q01DX001 (ip), vehicle: carboxymethylcellulose (CMC) 95 % of control | [11] 93 % of control | [12] 98 % of control | dose: 400.0 mg/kg/injection, schedule: Q01DX001 (ip), vehicle: carboxymethylcellulose (CMC) 87 % of control

COC(=O)/C=C(/Nc1cc(Cl)cc(Cl)c1)C(=O)OC
inactive: [13] 95 % of control | [9] 86 % of control | [14] 98 % of control | [15] 90 % of control | [10] 104 % of control

NC(=O)NNC(O)(C(F)(F)F)C(F)(F)F
inactive: [11] 103 % of control | [12] 108 % of control

Cc1cccc2c1NC(C)C2C (configuration not stated)
inactive: [6] 102 % of control | dose: 100.0 mg/kg/injection, schedule: Q04DX003 (ip), vehicle: saline 96 % of control | [7] 98 % of control | dose: 200.0 mg/kg/injection, schedule: Q04DX003 (ip), vehicle: saline 93 % of control | [8] 98 % of control | dose: 400.0 mg/kg/injection, schedule: Q04DX003 (ip), vehicle: saline 93 % of control

Cc1ccc(S(=O)(=O)O/N=C(/C#N)c2ccccc2)cc1
inactive: [16] 111 % of control | [17] 97 % of control | dose: 400.0 mg/kg/injection, schedule: Q04DX002 (ip), vehicle: Klucel (hydroxypropylcellulose) (HPC) 101 % of control

Cc1cc(-c2nnc(-c3ccc(O)c(C)c3)nn2)ccc1O
inactive: dose: 100.0 mg/kg/injection, schedule: Q01DX009 (ip), vehicle: saline with Tween-80 94 % of control | [3] 94 % of control | dose: 400.0 mg/kg/injection, schedule: Q01DX009 (ip), vehicle: saline with Tween-80 91 % of control

N#CCOc1cc(Cl)c(Cl)cc1Cl
inactive: [16] 107 % of control | [17] 97 % of control

N#CCC1C(=O)Nc2ccccc21 (configuration not stated)
inactive: [13] 101 % of control | [14] 98 % of control | [15] 101 % of control
